Assay results from patent US20240003908A1, “POLYOL BIOMARKERS FOR CONGENITAL DISORDERS OF GLYCOSYLATION” (Mayo Foundation for Medical Education and Research, priority 2020, published 2024).
“And” between values parts separate entries of the source, which are not always exact repeats. Equal entries are not always repeated.

Columns and labels:
[1] = test system: urine mannitol; test: Urine mannitol (GC/MS) in a PMM2-CDG pediatric patient on oral epalrestat therapy; assay type: in vivo, human; conditions: for urine mannitol level: before therapy 648.6, controls <20
Protocol: (§1) Clinical studies: Epalrestat was used as an N of 1 study for a single pediatric patient with PMM2-CDG. An open label, single patient compassionate use study designed to assess the safety and tolerability of oral epalrestat therapy in a child with PMM2-CDG. The patient received […]. Concomitant medications, vital signs, blood draw for serum chemistry and hematology, and blood levels of epalrestat were collected at each study visit during a 6 month period to evaluate the safety and tolerability of oral epalrestat therapy in a child with PMM2-CDG. The Nijmegen Pediatric CDG Rating Scale (NPCRS) assessment was administered at the start of the study and at 6 months. Urine polyols were collected at the start, at 4 months, and at 6 months of therapy, and were measured as described elsewhere (Jansen et al., Clin Chim Acta 1986, 157:277-294). Briefly, 200 μl urine specimens were spiked with a mixture of labeled internal standards, allowed to equilibrate, and evaporated. […] Specimens were analyzed by GC/MS, selected ion monitoring using ammonia chemical ionization and a stable isotope dilution method. In general, the following protocol was used: • Creatinine (CR) values (mg/dL) were determined for all samples. • Multiplication factors were calculated for each patient sample. • 100 μL of Polyol QC Mix for the QC Standard and 100 μL water were pipetted into a labeled 16×100 screw-cap glass tube. • 200 μL each of low control and high control were pipetted into corresponding labeled 16×100 mm screw-cap glass tubes. • 200 μL of each patient sample was pipetted into a corresponding labeled 16×100 mm screw cap glass tube. […]
(§2) Urine sorbitol and mannitol levels also were quantified using similar processing of samples and GC/MS settings, monitoring ions specific for sorbitol and mannitol for peak area ratio calculations.
(§3) Patient assessment: Prior to the first dose of epalrestat and at 1, 2, 3, 6, 8, 9, 12 months during treatment, concomitant medications and vital signs were recorded and the patient was evaluated using the NPCRS. […]

[2] = test system: urine sorbitol; test: Urine sorbitol (GC/MS) in a PMM2-CDG pediatric patient on oral epalrestat therapy; assay type: in vivo, human
Protocol: as §1, §2, §3

CC(/C=C1\SC(=S)N(CC(=O)O)C1=O)=C\c1ccccc1 [epalrestat] showed a urine mannitol level ([1]; 6 months of epalrestat therapy) of 25.09 mmol/mol creatinine, a urine mannitol level ([1]; after 3 months of epalrestat therapy) of 37.32 mmol/mol creatinine and a urinary mannitol level ([1]; at 4 months of epalrestat treatment, pretreatment 648.6, control less than 10) of 37.32 mmol/mol creatinine. For the same molecule, the urine sorbitol level ([2]; 6 months of epalrestat therapy, prior to treatment 19.93, controls <5) was 6.2 mmol/mol creatinine and 6.20 mmol/mol creatinine, the urine sorbitol level ([2]; after 3 months of epalrestat therapy, before therapy 19.93, controls <5) was 5.78 mmol/mol creatinine and the urine sorbitol level ([2]; after 4 months of epalrestat treatment, prior to treatment 19.93, controls <5) was 5.0 mmol/mol creatinine.
